Measurements published in patent US20020016346A1, “Method for enhancing outflow of aqueous humor in treatment of glaucoma” (The Regents University of California, a California …, priority 1994, published 2002).

Assays:
[1] = tested on: TM cell monolayers; test: Flux of 14C-sucrose across confluent TM cell monolayers on filters; format: cell-based; conditions: 15 minute assay period
Experimental: To investigate the possibility that alteration of TM intracellular volume results in modulation of trabecular meshwork barrier permeability, we evaluated the flux of ^14C-sucrose across confluent TM cell monolayers grown on permeable filters. Cells were grown to confluence on collagen-coated dual level tissue culture filter inserts placed in covered multiwell cluster plates, as shown schematically in […], wherein lower chamber 2 is formed by suspension of membrane 4 with cells attached into holder 6, which is covered by cover 8. Upper chamber 10 is formed by the space within the holder above the membrane. Growth media (EMEM) volumes of 0.5 and 1.5 ml were used for upper and lower chambers, respectively, as previously described (Kajimura, et al., FASEB J, 8:A1045, 1994) for evaluation of endothelial cell monolayers and for evaluation of water permeability of TM cell monolayers (Perkins, et al., Invest. Ophthalmol. Vis. Sci., 29:1836-1846, 1988). One insert was placed in each of 12 wells in a cluster plate. Permeability was assessed as the flux of ^14C-sucrose across the TM cell monolayers. […] Sucrose content of the samples was determined by […] methods. The amount of solute was calculated from the radioactivity present in the sample and the specific activity (cpm/μmol) of the ^14C-sucrose.

[2] = biological target: T1, Na—K—Cl cotransport (Bos taurus, UniProt F1MS08); test: K influx (86Rb) in bovine TM cell monolayers; format: cell-based
T1 sequence (F1MS08 1-1204): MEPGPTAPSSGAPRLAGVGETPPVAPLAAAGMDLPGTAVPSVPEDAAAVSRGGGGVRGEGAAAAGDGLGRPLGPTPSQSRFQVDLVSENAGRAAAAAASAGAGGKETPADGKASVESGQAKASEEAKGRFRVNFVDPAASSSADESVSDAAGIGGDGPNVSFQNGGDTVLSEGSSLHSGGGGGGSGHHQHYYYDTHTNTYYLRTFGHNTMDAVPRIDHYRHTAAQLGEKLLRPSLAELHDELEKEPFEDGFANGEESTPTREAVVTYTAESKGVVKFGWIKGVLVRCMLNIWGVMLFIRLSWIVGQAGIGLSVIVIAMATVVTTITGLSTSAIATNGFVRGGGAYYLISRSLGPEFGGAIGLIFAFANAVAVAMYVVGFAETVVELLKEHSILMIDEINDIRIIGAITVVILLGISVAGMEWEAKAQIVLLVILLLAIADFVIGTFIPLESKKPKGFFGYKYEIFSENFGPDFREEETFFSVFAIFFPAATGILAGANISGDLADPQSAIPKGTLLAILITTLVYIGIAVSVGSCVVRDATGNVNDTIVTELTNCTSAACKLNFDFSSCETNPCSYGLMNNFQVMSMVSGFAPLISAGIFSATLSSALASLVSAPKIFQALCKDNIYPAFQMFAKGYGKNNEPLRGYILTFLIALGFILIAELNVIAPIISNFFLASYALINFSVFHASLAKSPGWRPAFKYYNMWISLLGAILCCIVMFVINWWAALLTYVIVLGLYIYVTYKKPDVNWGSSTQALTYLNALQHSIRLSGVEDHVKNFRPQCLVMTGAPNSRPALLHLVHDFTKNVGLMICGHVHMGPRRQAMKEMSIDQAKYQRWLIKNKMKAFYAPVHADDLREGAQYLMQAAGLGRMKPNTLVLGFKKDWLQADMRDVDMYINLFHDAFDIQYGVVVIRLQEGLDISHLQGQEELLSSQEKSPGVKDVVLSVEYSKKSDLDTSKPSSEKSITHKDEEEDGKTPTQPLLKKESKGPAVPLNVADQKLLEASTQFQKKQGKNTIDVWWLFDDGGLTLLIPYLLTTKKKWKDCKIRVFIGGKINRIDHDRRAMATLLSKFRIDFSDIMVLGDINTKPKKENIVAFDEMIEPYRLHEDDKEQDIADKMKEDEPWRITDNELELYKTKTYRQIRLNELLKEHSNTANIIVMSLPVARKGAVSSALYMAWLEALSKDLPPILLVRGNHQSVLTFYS
Experimental: Details of this method have been published previously (O'Donnell, M. E., supra, 1989). Briefly, bovine or human TM cell monolayers on 24 well plates were equilibrated for 10 minutes at 37° C. in a Hepes-buffered minimal essential medium (MEM) containing (in mM): 144 Na, 147 Cl, 5.8 K, 1.2 Ca, 4.2 HCO3, 0.4 H2PO4, […], 0.4 SO4, 5.6 glucose and 20 Hepes. […] The assay medium also contained ^86Rb (1 μCi/ml) (Dupont New England Nuclear, Boston, Mass.). The assay was terminated by rinsing the wells with ice-cold isotonic MgCl2, then extracting the contents with 0.2% sodium dodecyl sulfate (SDS), and determining the amount of radioactive contents by liquid scintillation. Osmolarities of all preincubation and assay media were verified by osmometry (Model 3W2, Advanced Instruments, Norwood, Mass.).
The effects of hormones, neurotransmitters and second messengers on Bumetanide-sensitive K influx of bovine trabecular meshwork cells were assessed using the procedures of Example 1. […] The control is the Hepes-buffered medium containing Na, K, Cl, CA and other ions as described in Example 1B. […] The data represent the mean values±SEM of quadruplicate determinations from two experiments.

CCCCNc1cc(C(=O)O)cc(S(N)(=O)=O)c1Oc1ccccc1 [bumetanide]
monolayer permeability to sucrose [1]: increased | K influx ([2]; 10 μM bumetanide, total K uptake without drug 49±1.47): 22.09±1.14 μmol K/gm protein/min | BUMETANIDE-SENSITIVE K INFLUX ([2]; with Na/K pump inhibition (ouabain)): 20.1 μmol K/gm protein/min | BUMETANIDE-SENSITIVE K INFLUX ([2]; without Na/K pump inhibition): 26.9 μmol K/gm protein/min
